Values quoted from earlier work in patent US20240196931A1, “BOTANICAL SUPPLEMENT AND METHOD FOR PREVENTING DISEASES, PROMOTING GROWTH AND SURVIVAL OF AN ANIMAL BY USING THE SAME” (ACADEMIA SINICA, priority 2022, published 2024).

Tests used:
sepsis = sepsis induced by endotoxin or cecal ligation puncture
[1] = tested on: melanoma and breast cancer cell metastasis; conditions: in vitro and in xenograft or allograft mouse tumor models

## CC/C=C\C/C=C\C/C=C\CCCCCCCC(=O)OC[C@H](CO[C@@H]1O[C@H](CO)[C@H](O)[C@H](O)[C@H]1O)OC(=O)CCCCCCC/C=C\C/C=C\C/C=C\CC [dLGG, 1,2-di-O-α-linolenoyl-3-O-β-galactopyranosyl-sn-glycerol]
sepsis
  Effect against sepsis in mouse: preventive and therapeutic effect
[1]
  Effect on melanoma and breast cancer cell metastasis: suppressive effects
